Source: patent publication US8097722B2 (priority 2008, dated 2012)
Where two headings read alike, the source gives them in different places. Peptide text beside a SMILES is read from it. * marks the point of attachment. MeOSuc = COC(=O)CCC(=O)*; CH2Cl = ClC*

Experiments:
[1] = target: T1, Purified PMPMEase (Sus scrofa, UniProt Q29550); type: biochemical, porcine
T1 construct: from tissue; host or cells: porcine liver supernatant, purified by column chromatography
T1 sequence (Q29550 19-566): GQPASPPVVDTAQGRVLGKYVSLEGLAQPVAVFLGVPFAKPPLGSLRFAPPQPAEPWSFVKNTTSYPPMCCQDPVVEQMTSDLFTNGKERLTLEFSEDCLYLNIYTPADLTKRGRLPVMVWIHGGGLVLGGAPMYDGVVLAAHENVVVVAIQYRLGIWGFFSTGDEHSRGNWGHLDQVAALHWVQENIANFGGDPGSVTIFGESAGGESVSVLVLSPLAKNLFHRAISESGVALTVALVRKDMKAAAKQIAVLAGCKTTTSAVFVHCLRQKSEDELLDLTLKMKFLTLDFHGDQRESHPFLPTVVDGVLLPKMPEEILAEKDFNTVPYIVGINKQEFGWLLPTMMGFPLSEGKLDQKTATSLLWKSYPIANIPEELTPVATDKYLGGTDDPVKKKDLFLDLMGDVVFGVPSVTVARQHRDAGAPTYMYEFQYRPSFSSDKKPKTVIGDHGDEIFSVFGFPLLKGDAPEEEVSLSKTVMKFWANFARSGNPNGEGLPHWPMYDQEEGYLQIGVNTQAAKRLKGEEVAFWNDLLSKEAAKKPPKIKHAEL

[2] = target: T2, porcine liver PMPMEase (Sus scrofa, UniProt Q29550); experiment: PMPMEase inhibition assay of PMSF, GESF and FESF (IC50); type: biochemical; settings: for increase in potency relative to PMSF: ratio of IC50 values vs PMSF
T2 construct: the supernatant fraction was prepared from 100 g of porcine liver; from tissue; host or cells: porcine liver 40,000×g supernatant
T2 sequence (Q29550 19-566): T1 sequence (Q29550 19-566)

[3] = Aqueous solubility (statement); type: physicochemical
[4] = tested on: brain PMPMEase; type: biochemical, porcine
[5] = tested on: liver PMPMEase; type: biochemical, porcine
[6] = 0.01 mM compound, 20 min preincubation at 37° C., HCFCM 1 mM
[7] = 1 mM compound, 20 min preincubation at 37° C., HCFCM 1 mM

| Compound | Residual activity (% of Control, SEM, n = 3) 1 mM [1] | Brain Mean (mean percent inhibition relative to the controls) [4] | Liver Mean (mean percent inhibition relative to the controls) [5] | other results |
| --- | --- | --- | --- | --- |
| COC(=O)NS(=O)(=O)c1ccc(N)cc1 [Asulam] | 91.7 ± 6.9 % of Control |  |  | Residual activity (% of Control, SEM, n = 3) 0.01 mM [1]: 113 ± 6.3 % of Control |
| O=C(C(=O)c1ccccc1)c1ccccc1 [Benzil] | 38.0 ± .43 % of Control |  |  | Residual activity (% of Control, SEM, n = 3) 0.1 mM [1]: *69.4 ± 0.24 % of Control |
| NC(=O)OCc1ccccc1 [Benzyl carbamate] | 124 ± 5 % of Control |  |  | Residual activity (% of Control, SEM, n = 3) 0.01 mM [1]: 117 ± 11 % of Control |
| CCC(C)C(O)C(C)C(=O)C(C)/C=C(\C)CC(C)C1OC(=O)C1C (stereo not shown) [Ebelactone A] | 18.3 ± 0.3 % of Control |  |  | Residual activity (% of Control, SEM, n = 3) 0.01 mM [1]: 123 ± 7 % of Control |
| CCC(C)C(O)C(C)C(=O)C(C)/C=C(\C)CC(C)C1OC(=O)C1CC (stereo not shown) [Ebelactone B] | 0 ± 0 % of Control |  |  | Residual activity (% of Control, SEM, n = 3) 0.01 mM [1]: 56.4 ± 1.0 % of Control |
| CC(C)=CCC/C(C)=C/CC/C(C)=C/CSCCS(=O)(=O)F [FESF, S-trans,trans-farnesyl-2-thioethanesulfonyl fluoride] |  |  |  | IC50 [2]: 37 ± 0.42 nM; increase in potency relative to PMSF [2]: > 440 fold; aqueous solubility [3]: not aqueous-soluble |
| CC(C)=CCC/C(C)=C/CSCCS(=O)(=O)F [GESF, S-trans-geranyl-2-thioethanesulfonyl fluoride] |  |  |  | IC50 [2]: 169 ± 6.8 nM; increase in potency relative to PMSF [2]: over 97 fold; aqueous solubility [3]: not aqueous-soluble |
| CC(C)=CCC/C(C)=C/CC/C(C)=C/CC/C(C)=C/CS(=O)(=O)F [GGESF, S-geranylgeranyl sulfonyl fluoride] |  |  |  | higher potency than FESF (concluded from the data, not tested) ([2]; predicted vs FESF): 2 fold |
| CC(C)CC(N)C(=O)CCl [L-Leu chloromethyl ketone (CMK)] | 60.4 ± 1.9 % of Control |  |  | Residual activity (% of Control, SEM, n = 3) 0.01 mM [1]: 93.3 ± 1.0 % of Control |
| COC(=O)CCC(=O)N[C@@H](C)C(=O)N[C@@H](C)C(=O)N1CCC[C@H]1C(=O)N[C@H](C(=O)CCl)C(C)C [N- (methoxysuccinyl)-L- Ala-L-Ala-L-Pro-L- Val CMK] (MeOSuc-AAPV-CH2Cl) |  |  |  | Residual activity (% of Control, SEM, n = 3) 0.01 mM [1, 6]: 105 ± 3.1 % of Control; Residual activity (% of Control, SEM, n = 3) 1 mM [1, 7]: 61.8 ± 2.0 % of Control |
| O=C(N[C@@H](Cc1ccccc1)C(=O)CCl)OCc1ccccc1 [N-carbobenzyloxy-L- Phe CMK] | 57.0 ± 2.0 % of Control |  |  | Residual activity (% of Control, SEM, n = 3) 0.01 mM [1]: 94.8 ± 1.3 % of Control |
| Cc1ccc(S(=O)(=O)N[C@@H](CCCCN)C(=O)CCl)cc1 [Nα-tosyl-L-Lys CMK] | 98.6 ± 7.3 % of Control |  |  | Residual activity (% of Control, SEM, n = 3) 0.01 mM [1]: 98.3 ± 1.9 % of Control |
| CCOP(=O)(OCC)Oc1ccc([N+](=O)[O-])cc1 [Paraoxon] |  | 87% | 100% | Residual activity (% of Control, SEM, n = 3) 0.01 mM [1, 6]: 0 ± 0 % of Control; Residual activity (% of Control, SEM, n = 3) 1 mM [1, 7]: 0 ± 0 % of Control |
| O=S(=O)(F)Cc1ccccc1 [Phenylmethylsulfonyl fluoride, phenylmethylsulfonyl fluoride] |  |  |  | Residual activity (% of Control, SEM, n = 3) 0.01 mM [1, 6]: 79.5 ± 1.8 % of Control; Residual activity (% of Control, SEM, n = 3) 1 mM [1, 7]: 0 ± 0 % of Control |
| COP(=S)(OC)Oc1cc(Cl)c(Cl)cc1Cl [Ronnel] |  | 45% | 93% |  |
| CNP(=S)(OC)O/C(C)=C/C(=O)OC(C)C (stereo not shown) [Safrotin] |  | 52% | 54% |  |
| CCOP(=S)(OCC)OP(=S)(OCC)OCC [Sulfotep] |  | 47% | 97% |  |
| CCOP(=S)(OCC)SCSC(C)(C)C [Terbufos] |  | 100% | 72% |  |
| COP(=O)(OC)O/C(=C/Cl)c1cc(Cl)c(Cl)cc1Cl [Tetrachlorvinphos] |  | 100% | 91% |  |
| CCCSP(=S)(OCC)Oc1ccc(Cl)cc1Cl (stereo not shown) [Tokuthion] |  | 100% | 76% |  |
| Acephate |  | 50% | NO INHIBITION |  |
| Edifenphos |  | 81% | 97% |  |
| Heptenophos |  | 71% | 96% |  |
| Monocrotophos |  | 30% | 18% |  |
| Prothiofos |  | 6% | 52% |  |
| Trichlorfon |  | 100% | 91% |  |
